# Measurements reported in PMC5218480 (PLoS ONE, 2017).
# Test system: MV-4-11 cells
# Assay: Gene expression microarray analysis (Affymetrix PrimeView) and GSEA
# Type: cell-based, human
# Parameters: RFU PODN (11730768_x_at) / Fold change /veh PODN (11730768_x_at) / RFU LINC00158 (11744669_a_at) / Fold change /veh LINC00158 (11744669_a_at) / RFU DUSP10 (11751237_a_at) / Fold change /veh DUSP10 (11751237_a_at) / RFU ID3 (11757404_x_at) / Fold change /veh ID3 (11757404_x_at) / RFU PLEKHG5 (11737974_s_at) / Fold change /veh PLEKHG5 (11737974_s_at) / RFU LRRC4B (11730491_at) / Fold change /veh LRRC4B (11730491_at) / RFU GIMAP4 (11747438_a_at) / Fold change /veh GIMAP4 (11747438_a_at) / RFU KRT8 (11758183_x_at) / Fold change /veh KRT8 (11758183_x_at) / RFU CNN1 (11734310_a_at) / Fold change /veh CNN1 (11734310_a_at) / RFU VPS37D (11726825_at) / Fold change /veh VPS37D (11726825_at) / RFU C10orf10 (11716522_x_at) / Fold change /veh C10orf10 (11716522_x_at) / RFU KIR2DL2 /// KIR2DL4 /// KIR2DL5A /// KIR2DL5B /// KIR2DS1 /// KIR2DS2 /// KIR2DS3 /// KIR2DS4 /// KIR3DL3 /// KIR3DL3 /// KIR3DS1 (11738374_at) / Fold change /veh KIR2DL2 /// KIR2DL4 /// KIR2DL5A /// KIR2DL5B /// KIR2DS1 /// KIR2DS2 /// KIR2DS3 /// KIR2DS4 /// KIR3DL3 /// KIR3DL3 /// KIR3DS1 (11738374_at) / RFU C1QL1 (11718748_at) / Fold change /veh C1QL1 (11718748_at) / RFU TMPRSS4 (11747572_a_at) / Fold change /veh TMPRSS4 (11747572_a_at) / RFU HAMP (11756126_x_at) / Fold change /veh HAMP (11756126_x_at) / RFU RNFT2 (11725882_a_at) / Fold change /veh RNFT2 (11725882_a_at) / RFU NR4A2 (11747474_a_at) / Fold change /veh NR4A2 (11747474_a_at) / RFU ABCC12 (11746883_a_at) / Fold change /veh ABCC12 (11746883_a_at) / RFU TMEM136 (11760407_x_at) / Fold change /veh TMEM136 (11760407_x_at) / RFU CLDN22 /// WWC2 (11732394_at) / Fold change /veh CLDN22 /// WWC2 (11732394_at) / RFU HLA-DPB1 (11760878_x_at) / Fold change /veh HLA-DPB1 (11760878_x_at) / RFU SPINT1 (11716480_a_at) / Fold change /veh SPINT1 (11716480_a_at) / RFU GAP43 (11754022_s_at) / Fold change /veh GAP43 (11754022_s_at) / RFU A4GNT (11735810_at) / Fold change /veh A4GNT (11735810_at) / RFU PRB3 (11715151_x_at) / Fold change /veh PRB3 (11715151_x_at) / RFU TUBB4B (11761932_at) / Fold change /veh TUBB4B (11761932_at) / RFU CAPN14 (11732068_a_at) / Fold change /veh CAPN14 (11732068_a_at) / RFU TMCC2 (11721928_a_at) / Fold change /veh TMCC2 (11721928_a_at) / RFU IRGQ (11745062_a_at) / Fold change /veh IRGQ (11745062_a_at) / RFU FAM174B (11720279_a_at) / Fold change /veh FAM174B (11720279_a_at) / RFU TMPRSS4 (11748680_a_at) / Fold change /veh TMPRSS4 (11748680_a_at) / RFU FAM212B (11763350_a_at) / Fold change /veh FAM212B (11763350_a_at) / RFU PLEKHG5 (11743358_a_at) / Fold change /veh PLEKHG5 (11743358_a_at) / RFU ZSCAN30 (11745921_a_at) / Fold change /veh ZSCAN30 (11745921_a_at) / RFU CMKLR1 (11741424_a_at) / Fold change /veh CMKLR1 (11741424_a_at) / RFU LOC101060620 /// MAPK8IP1 (11723275_at) / Fold change /veh LOC101060620 /// MAPK8IP1 (11723275_at) / RFU SPTSSB (11747773_x_at) / Fold change /veh SPTSSB (11747773_x_at) / RFU PRSS12 (11739890_at) / Fold change /veh PRSS12 (11739890_at) / RFU BIN1 (11741810_x_at) / Fold change /veh BIN1 (11741810_x_at) / RFU WNT11 (11732464_a_at) / Fold change /veh WNT11 (11732464_a_at) / RFU C10orf10 (11716521_a_at) / Fold change /veh C10orf10 (11716521_a_at) / RFU C5orf56 (11738089_at) / Fold change /veh C5orf56 (11738089_at) / RFU CYB561 (11721691_x_at) / Fold change /veh CYB561 (11721691_x_at) / RFU ANKRD19P (11752326_a_at) / Fold change /veh ANKRD19P (11752326_a_at) / RFU OR2T12 /// OR2T33 /// OR2T8 (11738714_s_at) / Fold change /veh OR2T12 /// OR2T33 /// OR2T8 (11738714_s_at) / RFU VCAN (11748164_a_at) / Fold change /veh VCAN (11748164_a_at) / RFU JSRP1 (11732532_at) / Fold change /veh JSRP1 (11732532_at) / RFU KRTAP10-11 (11738290_x_at) / Fold change /veh KRTAP10-11 (11738290_x_at) / RFU MYO3A (11730013_a_at) / Fold change /veh MYO3A (11730013_a_at) / RFU EBF3 (11725865_a_at) / Fold change /veh EBF3 (11725865_a_at) / RFU CAMK2N1 (11719241_x_at) / Fold change /veh CAMK2N1 (11719241_x_at) / RFU C5orf56 (11738088_a_at) / Fold change /veh C5orf56 (11738088_a_at) / RFU OLFML3 (11715873_a_at) / Fold change /veh OLFML3 (11715873_a_at) / RFU LOC100653217 /// NTM (11731650_a_at) / Fold change /veh LOC100653217 /// NTM (11731650_a_at) / RFU MAPK11 (11762145_a_at) / Fold change /veh MAPK11 (11762145_a_at) / RFU FIZ1 (11724087_x_at) / Fold change /veh FIZ1 (11724087_x_at) / RFU OASL (11726364_x_at) / Fold change /veh OASL (11726364_x_at) / RFU SOX15 (11748057_x_at) / Fold change /veh SOX15 (11748057_x_at) / RFU CD79A (11719716_a_at) / Fold change /veh CD79A (11719716_a_at) / RFU HIST1H1D (11736915_at) / Fold change /veh HIST1H1D (11736915_at) / RFU CASKIN2 (11723855_a_at) / Fold change /veh CASKIN2 (11723855_a_at) / RFU LOC730098 (11760151_x_at) / Fold change /veh LOC730098 (11760151_x_at) / RFU OR4N2 (11742367_at) / Fold change /veh OR4N2 (11742367_at) / RFU PRRT2 (11749266_a_at) / Fold change /veh PRRT2 (11749266_a_at) / RFU SNX32 (11753110_a_at) / Fold change /veh SNX32 (11753110_a_at) / RFU CDHR5 (11726645_a_at) / Fold change /veh CDHR5 (11726645_a_at) / RFU RCAN1 (11760418_a_at) / Fold change /veh RCAN1 (11760418_a_at) / RFU FAM167A (11723789_a_at) / Fold change /veh FAM167A (11723789_a_at) / RFU FAM26E (11764081_at) / Fold change /veh FAM26E (11764081_at) / RFU ISYNA1 (11749810_s_at) / Fold change /veh ISYNA1 (11749810_s_at) / RFU ACY1 (11761880_at) / Fold change /veh ACY1 (11761880_at) / RFU 11764098_at / Fold change /veh 11764098_at / RFU SAMD14 (11745864_x_at) / Fold change /veh SAMD14 (11745864_x_at) / RFU NPB (11741838_a_at) / Fold change /veh NPB (11741838_a_at) / RFU TMPRSS6 (11731388_a_at) / Fold change /veh TMPRSS6 (11731388_a_at) / RFU KRTAP10-2 (11738614_at) / Fold change /veh KRTAP10-2 (11738614_at) / RFU ARHGAP8 /// PRR5-ARHGAP8 (11727945_x_at) / Fold change /veh ARHGAP8 /// PRR5-ARHGAP8 (11727945_x_at) / RFU KRTAP5-7 /// NADSYN1 (11734609_at) / Fold change /veh KRTAP5-7 /// NADSYN1 (11734609_at) / RFU RASL12 (11751679_a_at) / Fold change /veh RASL12 (11751679_a_at) / RFU CDKN2B (11736163_a_at) / Fold change /veh CDKN2B (11736163_a_at) / RFU PRF1 (11729649_at) / Fold change /veh PRF1 (11729649_at) / RFU, ZNF638 /// ZNF638-IT1 / Fold change vs veh, ZNF638 /// ZNF638-IT1 / RFU, PANK3 / Fold change vs veh, PANK3 / RFU, SH3YL1 / Fold change vs veh, SH3YL1 / RFU, ZEB2 / Fold change vs veh, ZEB2 / RFU, NRIP1 / Fold change vs veh, NRIP1 / RFU, PTTG1IP / Fold change vs veh, PTTG1IP / RFU, CAPN2 / Fold change vs veh, CAPN2 / RFU, MED14 / Fold change vs veh, MED14 / RFU, SNORA58 / Fold change vs veh, SNORA58 / RFU, C1orf63 / Fold change vs veh, C1orf63 / RFU, LRRFIP1 / Fold change vs veh, LRRFIP1 / RFU, NDUFAF7 / Fold change vs veh, NDUFAF7 / RFU, SLC12A2 / Fold change vs veh, SLC12A2 / RFU, IBTK / Fold change vs veh, IBTK / RFU, ESF1 / Fold change vs veh, ESF1 / Fold change vs veh, TMEM50B / RFU, TAOK1 / Fold change vs veh, TAOK1 / RFU, ACBD3 / Fold change vs veh, ACBD3 / RFU, TMA16 / Fold change vs veh, TMA16 / RFU, RWDD3 / Fold change vs veh, RWDD3 / RFU, BCAT1 / Fold change vs veh, BCAT1 / RFU, EDEM3 / Fold change vs veh, EDEM3 / RFU, TMEM33 / Fold change vs veh, TMEM33 / RFU, WDR75 / Fold change vs veh, WDR75 / RFU, AHCTF1 / Fold change vs veh, AHCTF1 / RFU, TFRC / Fold change vs veh, TFRC / RFU, ZDHHC17 / Fold change vs veh, ZDHHC17 / RFU, NOM1 / Fold change vs veh, NOM1 / RFU, ARL8B / Fold change vs veh, ARL8B / RFU, ZBTB11 / Fold change vs veh, ZBTB11 / RFU, TAMM41 / Fold change vs veh, TAMM41 / RFU, KIAA1704 /// LOC100996395 / Fold change vs veh, KIAA1704 /// LOC100996395 / RFU, ING1 / Fold change vs veh, ING1 / RFU, TRMT61B / Fold change vs veh, TRMT61B / RFU, FUBP3 / Fold change vs veh, FUBP3 / RFU, TP53 / Fold change vs veh, TP53 / RFU, TNKS2 / Fold change vs veh, TNKS2 / RFU, ZFP14 / Fold change vs veh, ZFP14 / RFU, ACTR2 / Fold change vs veh, ACTR2 / RFU, PPP3R1 / Fold change vs veh, PPP3R1 / RFU, PIK3R1 / Fold change vs veh, PIK3R1 / RFU, HNRNPA1 / Fold change vs veh, HNRNPA1 / RFU, RNF170 / Fold change vs veh, RNF170 / RFU, ZNF28 / Fold change vs veh, ZNF28 / RFU, RNGTT / Fold change vs veh, RNGTT / RFU, OGT / Fold change vs veh, OGT / RFU, BRD1 / Fold change vs veh, BRD1 / RFU, MARS / Fold change vs veh, MARS / RFU, ZNF655 / Fold change vs veh, ZNF655 / RFU, FAHD1 / Fold change vs veh, FAHD1 / RFU, BDP1 / Fold change vs veh, BDP1 / RFU, LRRCC1 / Fold change vs veh, LRRCC1 / RFU, ARID1A / Fold change vs veh, ARID1A / RFU, ZNF146 / Fold change vs veh, ZNF146 / RFU, ZNF330 / Fold change vs veh, ZNF330 / RFU, GPN3 / Fold change vs veh, GPN3 / RFU, C9orf123 / Fold change vs veh, C9orf123 / RFU, N4BP2L2 / Fold change vs veh, N4BP2L2 / RFU, ARFIP1 / Fold change vs veh, ARFIP1 / RFU, FAM179B / Fold change vs veh, FAM179B / RFU, BCL10 / Fold change vs veh, BCL10 / RFU, UHRF1BP1L / Fold change vs veh, UHRF1BP1L / RFU, BET1 / Fold change vs veh, BET1 / RFU, CNOT2 / Fold change vs veh, CNOT2 / RFU, ZNF268 / Fold change vs veh, ZNF268 / Fold change vs veh, ZNF507 / RFU, DGCR2 / Fold change vs veh, DGCR2 / RFU, WDSUB1 / Fold change vs veh, WDSUB1 / Fold change vs veh, HSP90B1 /// MIR3652 / RFU, ADSS / Fold change vs veh, ADSS / RFU, GK / Fold change vs veh, GK / RFU, ZNF148 / Fold change vs veh, ZNF148 / RFU, TAF9 / Fold change vs veh, TAF9 / RFU, SLC1A5 / Fold change vs veh, SLC1A5 / RFU, SLMO2 / Fold change vs veh, SLMO2 / RFU, ABCC4 / Fold change vs veh, ABCC4 / RFU, LOC101060439 /// RAP1B / Fold change vs veh, LOC101060439 /// RAP1B / RFU, RFX7 / Fold change vs veh, RFX7 / RFU, GTPBP10 / Fold change vs veh, GTPBP10 / RFU, CNEP1R1 / Fold change vs veh, CNEP1R1 / RFU, BIVM-ERCC5 /// ERCC5 / Fold change vs veh, BIVM-ERCC5 /// ERCC5 / RFU, ILF3 / Fold change vs veh, ILF3 / RFU 11762660_at / Fold change /veh 11762660_at / RFU VCAN (11757783_s_at) / Fold change /veh VCAN (11757783_s_at) / RFU DDX43 (11728927_at) / Fold change /veh DDX43 (11728927_at) / RFU KRT8 (11758188_x_at) / Fold change /veh KRT8 (11758188_x_at) / RFU NKD1 (11759106_at) / Fold change /veh NKD1 (11759106_at) / RFU SRD5A1 (11742802_a_at) / Fold change /veh SRD5A1 (11742802_a_at) / RFU TPSAB1 /// TPSB2 (11721975_s_at) / Fold change /veh TPSAB1 /// TPSB2 (11721975_s_at) / RFU GSTM3 (11746129_a_at) / Fold change /veh GSTM3 (11746129_a_at) / RFU IL23R (11737362_x_at) / Fold change /veh IL23R (11737362_x_at) / RFU TMEM51 (11727254_a_at) / Fold change /veh TMEM51 (11727254_a_at) / RFU PIWIL2 (11732686_x_at) / Fold change /veh PIWIL2 (11732686_x_at) / RFU ORM1 (11744905_x_at) / Fold change /veh ORM1 (11744905_x_at) / RFU CCDC152 (11743942_at) / Fold change /veh CCDC152 (11743942_at) / RFU ECM1 (11717891_a_at) / Fold change /veh ECM1 (11717891_a_at) / RFU IL23R (11748794_a_at) / Fold change /veh IL23R (11748794_a_at) / RFU TNFAIP8L3 (11732012_x_at) / Fold change /veh TNFAIP8L3 (11732012_x_at) / RFU MBOAT4 (11741988_at) / Fold change /veh MBOAT4 (11741988_at) / RFU 11764193_at / Fold change /veh 11764193_at / RFU TMEM53 (11763286_at) / Fold change /veh TMEM53 (11763286_at) / RFU MAGEB2 (11727129_at) / Fold change /veh MAGEB2 (11727129_at) / RFU TMEM200A (11744735_a_at) / Fold change /veh TMEM200A (11744735_a_at) / RFU CCDC152 (11751479_a_at) / Fold change /veh CCDC152 (11751479_a_at) / RFU FAM211A (11726209_a_at) / Fold change /veh FAM211A (11726209_a_at) / RFU RGS16 (11746705_a_at) / Fold change /veh RGS16 (11746705_a_at) / RFU VCAN (11755009_s_at) / Fold change /veh VCAN (11755009_s_at) / RFU RHOB (11743442_s_at) / Fold change /veh RHOB (11743442_s_at) / RFU RGS16 (11720943_a_at) / Fold change /veh RGS16 (11720943_a_at) / RFU RGS16 (11720944_at) / Fold change /veh RGS16 (11720944_at) / RFU, VPS4B / Fold change vs veh, VPS4B / RFU, CREB1 / Fold change vs veh, CREB1 / RFU, DNAJC13 / Fold change vs veh, DNAJC13 / RFU, GNAQ / Fold change vs veh, GNAQ / RFU, CDK5R1 / Fold change vs veh, CDK5R1 / RFU, ZRANB3 / Fold change vs veh, ZRANB3 / RFU, CUL4A / Fold change vs veh, CUL4A / RFU, CCNY / Fold change vs veh, CCNY / RFU, UFL1 / Fold change vs veh, UFL1 / RFU, COG3 / Fold change vs veh, COG3 / RFU, DIAPH2 / Fold change vs veh, DIAPH2 / RFU, SKA2 / Fold change vs veh, SKA2 / RFU, AFF3 / Fold change vs veh, AFF3 / RFU, LMF1 / Fold change vs veh, LMF1 / RFU, IPO11 / Fold change vs veh, IPO11 / RFU, DFFB / Fold change vs veh, DFFB / RFU, FOXP1 / Fold change vs veh, FOXP1 / RFU, CARD8 / Fold change vs veh, CARD8 / RFU, STRN3 / Fold change vs veh, STRN3 / RFU, ADK / Fold change vs veh, ADK / RFU, RASSF2 / Fold change vs veh, RASSF2 / RFU, WIPF1 / Fold change vs veh, WIPF1 / RFU, LARP1B / Fold change vs veh, LARP1B / RFU, RASA1 / Fold change vs veh, RASA1 / RFU, RB1 / Fold change vs veh, RB1 / RFU, PPFIA1 / Fold change vs veh, PPFIA1 / RFU, MAT2A / Fold change vs veh, MAT2A / RFU, CCT5 / Fold change vs veh, CCT5 / RFU, WDR92 / Fold change vs veh, WDR92 / RFU, CUX1 / Fold change vs veh, CUX1 / RFU, TTC7A / Fold change vs veh, TTC7A / RFU, TMEM135 / Fold change vs veh, TMEM135 / RFU, DEPTOR / Fold change vs veh, DEPTOR / RFU, CPM / Fold change vs veh, CPM / RFU, DNAJB6 / Fold change vs veh, DNAJB6 / RFU, CACNA2D3 / Fold change vs veh, CACNA2D3 / RFU, DTX4 / Fold change vs veh, DTX4 / RFU, TFCP2 / Fold change vs veh, TFCP2 / RFU, GMCL1 /// GMCL1P1 / Fold change vs veh, GMCL1 /// GMCL1P1 / RFU, AEBP2 / Fold change vs veh, AEBP2 / RFU, SNHG1 /// SNORD22 /// SNORD25 /// SNORD26 /// SNORD27 /// SNORD28 /// SNORD29 /// SNORD31 / Fold change vs veh, SNHG1 /// SNORD22 /// SNORD25 /// SNORD26 /// SNORD27 /// SNORD28 /// SNORD29 /// SNORD31 / Fold change (Aza/veh), C12orf56 (ProbeSet 11735607_a_at) / Fold change (ACY-1035/veh), C12orf56 (ProbeSet 11735607_a_at) / Fold change (Aza/veh), FGFR1OP (ProbeSet 11751329_s_at) / Fold change (ACY-1035/veh), FGFR1OP (ProbeSet 11751329_s_at) / Fold change (Aza/veh), VPS36 (ProbeSet 11739960_a_at) / Fold change (ACY-1035/veh), VPS36 (ProbeSet 11739960_a_at) / RFU SYPL1 (11715823_x_at) / Fold change /veh SYPL1 (11715823_x_at) / RFU IGFBP7 (11715501_s_at) / Fold change /veh IGFBP7 (11715501_s_at) / RFU REEP3 (11722064_at) / Fold change /veh REEP3 (11722064_at) / RFU IGLL1 (11728026_x_at) / Fold change /veh IGLL1 (11728026_x_at): dose or concentration left out as unconfirmed
# Conditions: ProbeSet 11720270_a_at; LIST B
structure (smiles),measurement,value
Nc1ncn([C@@H]2O[C@H](CO)[C@@H](O)[C@H]2O)c(=O)n1 [azacitidine],"RFU, IBTK",397.77 RFU
